Format in all cases: cell-based
One experiment concerns the target BaF3_HER2WT cells (Homo sapiens, UniProt P04626). In words: Cell growth inhibition assay (CellTiterGlo), BaF3_HER2WT. As to conditions: 3-day treatment, CellTiterGlo, read-out: Cell growth inhibition activity, HER2 WT. A general note: Cellular ATP, detected with luciferase, serves as a proxy for viable cell number.
A further experiment deals with BaF3_HER2YVMA cells (Homo sapiens, UniProt P04626, DUP772-775, cells depend on it). Kind of experiment: Cell growth inhibition assay (CellTiterGlo), BaF3_HER2YVMA. Conditions: 3-day treatment, CellTiterGlo, read-out: Cell growth inhibition activity, HER2 - YVMA.
For another experiment, the target named is BaF3_EGFRWT cells (Homo sapiens, UniProt P00533). Kind of experiment: Cell growth inhibition assay (CellTiterGlo), BaF3_EGFRWT. As to conditions: 3-day treatment, CellTiterGlo, read-out: Cell growth inhibition activity, EGFR WT.

Where only a bound is given, the exact number is not on record here.

For 20 molecules, GI50 results are on record in patent US20240132521A1, “COMPOUNDS AND METHODS FOR MODULATING HER2” (Iambic Therapeutics, Inc., priority 2022, published 2024).

BaF3_HER2WT cells, sequence (P04626 whole entry, change not shown): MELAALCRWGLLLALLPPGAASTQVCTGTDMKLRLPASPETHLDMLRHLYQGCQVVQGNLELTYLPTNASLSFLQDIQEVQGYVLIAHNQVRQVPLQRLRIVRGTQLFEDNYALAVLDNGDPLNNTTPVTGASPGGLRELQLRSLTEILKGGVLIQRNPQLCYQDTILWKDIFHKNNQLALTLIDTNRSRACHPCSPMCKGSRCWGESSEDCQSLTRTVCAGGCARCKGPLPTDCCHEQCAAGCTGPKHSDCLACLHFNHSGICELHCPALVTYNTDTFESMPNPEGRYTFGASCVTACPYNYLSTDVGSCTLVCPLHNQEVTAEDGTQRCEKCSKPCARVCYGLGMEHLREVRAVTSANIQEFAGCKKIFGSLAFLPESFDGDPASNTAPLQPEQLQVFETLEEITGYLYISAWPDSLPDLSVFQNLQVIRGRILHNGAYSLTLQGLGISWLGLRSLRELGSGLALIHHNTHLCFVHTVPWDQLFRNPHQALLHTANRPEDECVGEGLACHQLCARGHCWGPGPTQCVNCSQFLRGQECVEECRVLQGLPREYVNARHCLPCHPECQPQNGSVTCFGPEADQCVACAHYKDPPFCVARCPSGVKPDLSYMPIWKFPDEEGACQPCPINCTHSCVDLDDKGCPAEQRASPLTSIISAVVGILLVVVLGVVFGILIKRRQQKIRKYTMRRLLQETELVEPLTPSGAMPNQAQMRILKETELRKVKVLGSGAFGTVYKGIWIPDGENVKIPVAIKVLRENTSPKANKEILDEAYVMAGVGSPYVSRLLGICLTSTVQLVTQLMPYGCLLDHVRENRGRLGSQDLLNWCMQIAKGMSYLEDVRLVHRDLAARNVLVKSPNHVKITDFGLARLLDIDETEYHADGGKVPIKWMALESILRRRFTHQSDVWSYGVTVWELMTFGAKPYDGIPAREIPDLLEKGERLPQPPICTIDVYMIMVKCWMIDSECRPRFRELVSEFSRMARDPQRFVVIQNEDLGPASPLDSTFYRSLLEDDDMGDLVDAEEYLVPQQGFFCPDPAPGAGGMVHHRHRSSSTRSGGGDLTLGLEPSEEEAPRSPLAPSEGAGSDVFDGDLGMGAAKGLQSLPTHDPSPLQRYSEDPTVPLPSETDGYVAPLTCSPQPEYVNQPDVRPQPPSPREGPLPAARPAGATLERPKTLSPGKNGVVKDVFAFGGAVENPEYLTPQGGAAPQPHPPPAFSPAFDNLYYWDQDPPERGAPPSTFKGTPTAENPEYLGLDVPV
BaF3_HER2YVMA cells, sequence (P04626 with tags, fused parts or gaps DUP772-775): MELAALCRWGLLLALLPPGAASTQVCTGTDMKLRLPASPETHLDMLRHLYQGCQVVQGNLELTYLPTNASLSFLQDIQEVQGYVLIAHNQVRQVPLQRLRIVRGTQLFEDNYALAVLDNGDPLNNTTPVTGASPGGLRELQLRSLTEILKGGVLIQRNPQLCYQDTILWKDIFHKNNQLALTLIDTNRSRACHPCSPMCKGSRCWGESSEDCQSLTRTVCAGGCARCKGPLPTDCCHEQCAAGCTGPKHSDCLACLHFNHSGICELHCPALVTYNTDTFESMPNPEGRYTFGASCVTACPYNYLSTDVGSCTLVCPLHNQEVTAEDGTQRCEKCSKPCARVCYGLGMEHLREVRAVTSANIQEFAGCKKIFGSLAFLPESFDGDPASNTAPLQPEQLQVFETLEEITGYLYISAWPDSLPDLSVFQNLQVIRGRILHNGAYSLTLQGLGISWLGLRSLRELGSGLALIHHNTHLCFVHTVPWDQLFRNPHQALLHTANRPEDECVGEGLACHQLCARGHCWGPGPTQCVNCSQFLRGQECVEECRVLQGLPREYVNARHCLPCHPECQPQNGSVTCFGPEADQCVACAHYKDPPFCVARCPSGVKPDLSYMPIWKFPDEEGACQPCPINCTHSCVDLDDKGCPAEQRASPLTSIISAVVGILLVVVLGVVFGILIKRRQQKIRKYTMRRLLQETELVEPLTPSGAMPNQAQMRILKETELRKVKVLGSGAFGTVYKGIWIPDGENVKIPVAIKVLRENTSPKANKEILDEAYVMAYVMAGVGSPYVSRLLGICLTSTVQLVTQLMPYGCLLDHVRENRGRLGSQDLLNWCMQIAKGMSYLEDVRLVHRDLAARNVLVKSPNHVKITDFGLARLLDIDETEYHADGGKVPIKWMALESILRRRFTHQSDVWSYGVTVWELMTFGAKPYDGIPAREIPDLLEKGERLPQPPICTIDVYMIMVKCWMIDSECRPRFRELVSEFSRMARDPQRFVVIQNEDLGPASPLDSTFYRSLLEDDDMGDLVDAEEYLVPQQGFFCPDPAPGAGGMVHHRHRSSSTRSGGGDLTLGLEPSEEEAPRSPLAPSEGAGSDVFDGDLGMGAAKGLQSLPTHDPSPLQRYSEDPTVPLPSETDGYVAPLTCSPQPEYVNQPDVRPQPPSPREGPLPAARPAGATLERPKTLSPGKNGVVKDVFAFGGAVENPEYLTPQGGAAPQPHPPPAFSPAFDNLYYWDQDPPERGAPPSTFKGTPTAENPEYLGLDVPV
BaF3_EGFRWT cells, sequence (P00533 whole entry, change not shown): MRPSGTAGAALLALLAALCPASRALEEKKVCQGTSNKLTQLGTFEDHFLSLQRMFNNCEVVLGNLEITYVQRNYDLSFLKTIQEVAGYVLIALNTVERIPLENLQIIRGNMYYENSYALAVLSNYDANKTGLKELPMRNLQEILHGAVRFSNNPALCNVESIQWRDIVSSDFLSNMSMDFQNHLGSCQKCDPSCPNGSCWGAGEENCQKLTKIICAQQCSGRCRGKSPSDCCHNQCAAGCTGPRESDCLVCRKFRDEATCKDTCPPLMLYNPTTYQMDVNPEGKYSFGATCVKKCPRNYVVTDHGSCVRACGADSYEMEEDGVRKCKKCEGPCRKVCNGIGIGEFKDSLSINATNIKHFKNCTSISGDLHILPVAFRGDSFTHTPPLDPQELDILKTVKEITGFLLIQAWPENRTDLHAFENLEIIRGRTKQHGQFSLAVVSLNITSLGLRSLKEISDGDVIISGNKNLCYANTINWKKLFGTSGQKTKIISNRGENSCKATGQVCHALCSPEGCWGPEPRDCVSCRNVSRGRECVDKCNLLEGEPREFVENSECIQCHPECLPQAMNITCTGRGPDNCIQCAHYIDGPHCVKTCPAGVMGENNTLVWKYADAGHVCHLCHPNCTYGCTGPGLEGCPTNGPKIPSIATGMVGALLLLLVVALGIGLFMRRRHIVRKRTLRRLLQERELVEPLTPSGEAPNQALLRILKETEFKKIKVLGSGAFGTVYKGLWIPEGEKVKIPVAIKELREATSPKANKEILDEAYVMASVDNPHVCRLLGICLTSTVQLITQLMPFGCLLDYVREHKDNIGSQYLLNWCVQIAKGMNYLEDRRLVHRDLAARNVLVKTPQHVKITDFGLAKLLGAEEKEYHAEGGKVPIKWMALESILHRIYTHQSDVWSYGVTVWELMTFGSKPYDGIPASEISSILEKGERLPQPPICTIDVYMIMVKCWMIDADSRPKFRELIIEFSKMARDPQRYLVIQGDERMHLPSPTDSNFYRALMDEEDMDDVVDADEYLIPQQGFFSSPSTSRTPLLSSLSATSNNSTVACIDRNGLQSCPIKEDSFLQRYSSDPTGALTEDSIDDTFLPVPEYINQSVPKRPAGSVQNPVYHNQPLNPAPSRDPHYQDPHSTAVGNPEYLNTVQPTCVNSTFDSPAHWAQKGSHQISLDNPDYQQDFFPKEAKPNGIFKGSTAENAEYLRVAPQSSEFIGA

Take `Cc1cc(Nc2ncnn3ccc(C4CCN(C(=O)/C=C/CN5CCN(C)CC5)CC4)c23)ccc1Oc1ccn2ncnc2c1` [Example 24, (E)-1-(4-(4-((4-([1,2,4]triazolo[1,5-a]pyridin-7-yloxy)-3-methylphenyl)amino)pyrrolo[2,1-f][1,2,4]triazin-5-yl)piperidin-1-yl)-4-(4-methylpiperazin-1-yl)but-2-en-1-one]: the GI50 at BaF3_HER2WT cells is < 200 nM; at BaF3_HER2YVMA cells, 500 to 1500 nM; at BaF3_EGFRWT cells, 1500 to 5000 nM.

With `Cc1cc(Nc2ncnn3ccc(C4CCN(C(=O)/C=C/[C@H]5CCCN5C)CC4)c23)ccc1Oc1ccn2ncnc2c1` [Example 25, (R,E)-1-(4-(4-((4-([1,2,4]triazolo[1,5-a]pyridin-7-yloxy)-3-methylphenyl)amino)pyrrolo[2,1-f][1,2,4]triazin-5-yl)piperidin-1-yl)-3-(1-methylpyrrolidin-2-yl)prop-2-en-1-one], the GI50 is < 200 nM at BaF3_HER2WT cells, < 200 nM at BaF3_HER2YVMA cells and 1500 to 5000 nM on BaF3_EGFRWT cells.

As to `C=C(F)C(=O)N1CC=C(c2ccn3ncnc(Nc4ccc(Oc5ccn6ncnc6c5)c(C)c4)c23)CC1` [Example 26, 1-(4-(4-((4-([1,2,4]triazolo[1,5-a]pyridin-7-yloxy)-3-methylphenyl)amino)pyrrolo[2,1-f][1,2,4]triazin-5-yl)-3,6-dihydropyridin-1(2H)-yl)-2-fluoroprop-2-en-1-one], the GI50 on BaF3_HER2WT cells lay in the range of 200 to 500 nM; at BaF3_HER2YVMA cells, 1500 to 5000 nM; on BaF3_EGFRWT cells it was 1500 to 5000 nM.

As to `C=C(C#N)C(=O)N1CCC(c2ccn3ncnc(Nc4ccc(Oc5ccn6ncnc6c5)c(C)c4)c23)CC1` [Example 27, 2-(4-(4-((4-([1,2,4]triazolo[1,5-a]pyridin-7-yloxy)-3-methylphenyl)amino)pyrrolo[2,1-f][1,2,4]triazin-5-yl)piperidine-1-carbonyl)acrylonitrile], the GI50 at BaF3_HER2WT cells fell in the range of 500 to 1500 nM; at BaF3_HER2YVMA cells, 1500 to 5000 nM; on BaF3_EGFRWT cells it was 1500 to 5000 nM.

In the case of `C=CC(=O)N1CC=C(c2ccn3ncnc(Nc4ccc(Oc5ccn6ncnc6c5)c(C)c4)c23)C1` [Example 28, 1-(3-(4-((4-([1,2,4]triazolo[1,5-a]pyridin-7-yloxy)-3-methylphenyl)amino)pyrrolo[2,1-f][1,2,4]triazin-5-yl)-2,5-dihydro-1H-pyrrol-1-yl)prop-2-en-1-one acetate], the GI50 at BaF3_HER2WT cells is < 200 nM; at BaF3_HER2YVMA cells, 500 to 1500 nM; on BaF3_EGFRWT cells it was 1500 to 5000 nM.

With `Cc1cc(Nc2ncnn3ccc(C4=CCN(C(=O)/C=C/CN(C)C)C4)c23)ccc1Oc1ccn2ncnc2c1` [Example 29, (E)-1-(3-(4-((4-([1,2,4]triazolo[1,5-a]pyridin-7-yloxy)-3-methylphenyl)amino)pyrrolo[2,1-f][1,2,4]triazin-5-yl)-2,5-dihydro-1H-pyrrol-1-yl)-4-(dimethylamino)but-2-en-1-one acetate], the values for the GI50 on BaF3_HER2WT cells, on BaF3_HER2YVMA cells and at BaF3_EGFRWT cells were < 200 nM, 1500 to 5000 nM and 1500 to 5000 nM, respectively.

Regarding `C=C(CN(C)C)C(=O)N1C2C=C(c3ccn4ncnc(Nc5ccc(Oc6ccn7ncnc7c6)c(C)c5)c34)CC1CC2` (stereo not drawn) [Example 30, 1-(3-(4-((4-([1,2,4]triazolo[1,5-a]pyridin-7-yloxy)-3-methylphenyl)amino)pyrrolo[2,1-f][1,2,4]triazin-5-yl)-8-azabicyclo[3.2.1]oct-2-en-8-yl)-2-((dimethylamino)methyl)prop-2-en-1-one acetate], the GI50 at BaF3_HER2WT cells is < 200 nM; at BaF3_HER2YVMA cells, < 200 nM; on BaF3_EGFRWT cells it was 1500 to 5000 nM.

In the case of `Cc1cc(Nc2ccn3ncnc(C4CC5CCC(C4)N5C(=O)/C=C/CN(C)C)c23)ccc1Oc1ccn2cnnc2c1` (stereo not drawn) [Example 33, (E)-1-(3-(5-((4-([1,2,4]triazolo[4,3-a]pyridin-7-yloxy)-3-methylphenyl)amino)pyrrolo[2,1-f][1,2,4]triazin-4-yl)-8-azabicyclo[3.2.1]octan-8-yl)-4-(dimethylamino)but-2-en-1-one acetate], the GI50 on BaF3_HER2WT cells was < 200 nM; on BaF3_HER2YVMA cells, 200 to 500 nM; on BaF3_EGFRWT cells, 1500 to 5000 nM.

As to `Cc1cc(Nc2ncnn3ccc(C4CCN(C(=O)C(F)Cl)CC4)c23)ccc1Oc1ccn2ncnc2c1` (stereo not drawn) [Example 35, 1-(4-(4-((4-([1,2,4]triazolo[1,5-a]pyridin-7-yloxy)-3-methylphenyl)amino)pyrrolo[2,1-f][1,2,4]triazin-5-yl)piperidin-1-yl)-2-chloro-2-fluoroethan-1-one acetate], the results for the GI50 on BaF3_HER2WT cells, at BaF3_HER2YVMA cells and at BaF3_EGFRWT cells were < 200 nM, < 200 nM and 1500 to 5000 nM, respectively.

Take `Cc1cc(Nc2ncnn3ccc(C4CCN(C(=O)C5CC(=O)N5)CC4)c23)ccc1Oc1ccn2ncnc2c1` (stereo not drawn) [Example 36, 4-(4-(4-((4-([1,2,4]triazolo[1,5-a]pyridin-7-yloxy)-3-methylphenyl)amino)pyrrolo[2,1-f][1,2,4]triazin-5-yl)piperidine-1-carbonyl)azetidin-2-one acetate]: the GI50 on BaF3_HER2WT cells, on BaF3_HER2YVMA cells and on BaF3_EGFRWT cells was 1500 to 5000 nM in each case.

For the molecule `Cc1cc(Nc2ncnn3ccc(C4CN(C(=O)/C=C/CN5CCOCC5)C4)c23)ccc1Oc1ccn2ncnc2c1` [Example 37, (E)-1-(3-(4-((4-([1,2,4]triazolo[1,5-a]pyridin-7-yloxy)-3-methylphenyl)amino)pyrrolo[2,1-f][1,2,4]triazin-5-yl)azetidin-1-yl)-4-morpholinobut-2-en-1-one], the GI50 was < 200 nM on BaF3_HER2WT cells, < 200 nM at BaF3_HER2YVMA cells and 1500 to 5000 nM at BaF3_EGFRWT cells.

For the molecule `Cc1cc(Nc2ncnn3ccc(C4CN(C(=O)/C=C/CN5CC(F)C5)C4)c23)ccc1Oc1ccn2ncnc2c1` [Example 38, (E)-1-(3-(4-((4-([1,2,4]triazolo[1,5-a]pyridin-7-yloxy)-3-methylphenyl)amino)pyrrolo[2,1-f][1,2,4]triazin-5-yl)azetidin-1-yl)-4-(3-fluoroazetidin-1-yl)but-2-en-1-one], the figures for the GI50 on BaF3_HER2WT cells, at BaF3_HER2YVMA cells and on BaF3_EGFRWT cells were < 200 nM, < 200 nM and 1500 to 5000 nM, respectively.

In the case of `COC/C=C/C(=O)N1CC(c2ccn3ncnc(Nc4ccc(Oc5ccn6ncnc6c5)c(C)c4)c23)C1` [Example 40, (E)-1-(3-(4-((4-([1,2,4]triazolo[1,5-a]pyridin-7-yloxy)-3-methylphenyl)amino)pyrrolo[2,1-f][1,2,4]triazin-5-yl)azetidin-1-yl)-4-methoxybut-2-en-1-one], the GI50 on BaF3_HER2WT cells was 200 to 500 nM; on BaF3_HER2YVMA cells, 200 to 500 nM; on BaF3_EGFRWT cells it was 1500 to 5000 nM.

Take `COC1CCN(C/C=C/C(=O)N2CC(c3ccn4ncnc(Nc5ccc(Oc6ccn7ncnc7c6)c(C)c5)c34)C2)C1` (stereo not drawn) [Example 41, (E)-1-(3-(4-((4-([1,2,4]triazolo[1,5-a]pyridin-7-yloxy)-3-methylphenyl)amino)pyrrolo[2,1-f][1,2,4]triazin-5-yl)azetidin-1-yl)-4-(3-methoxypyrrolidin-1-yl)but-2-en-1-one]: the figures for the GI50 on BaF3_HER2WT cells, on BaF3_HER2YVMA cells and on BaF3_EGFRWT cells were < 200 nM, < 200 nM and 1500 to 5000 nM, respectively.

Turning to `COC1CCN(C/C=C/C(=O)N2CC(c3ccn4ncnc(Nc5ccc(Oc6ccn7ncnc7c6)c(C)c5)c34)C2)CC1` [Example 42, (E)-1-(3-(4-((4-([1,2,4]triazolo[1,5-a]pyridin-7-yloxy)-3-methylphenyl)amino)pyrrolo[2,1-f][1,2,4]triazin-5-yl)azetidin-1-yl)-4-(4-methoxypiperidin-1-yl)but-2-en-1-one], the values for the GI50 at BaF3_HER2WT cells, on BaF3_HER2YVMA cells and at BaF3_EGFRWT cells were < 200 nM, < 200 nM and 1500 to 5000 nM, respectively.

With `Cc1cc(Nc2ncnn3ccc(C4CN(C(=O)/C=C/CC(C)C)C4)c23)ccc1Oc1ccn2ncnc2c1` [Example 43, (E)-1-(3-(4-((4-([1,2,4]triazolo[1,5-a]pyridin-7-yloxy)-3-methylphenyl)amino)pyrrolo[2,1-f][1,2,4]triazin-5-yl)azetidin-1-yl)-5-methylhex-2-en-1-one], the GI50 at BaF3_HER2WT cells is < 200 nM; on BaF3_HER2YVMA cells it was 200 to 500 nM; on BaF3_EGFRWT cells it was 1500 to 5000 nM.

Turning to `C=CC(=O)N1CC2CCC(C1)N2c1ccn2ncnc(Nc3ccc(Oc4ccn5ncnc5c4)c(C)c3)c12` [Example 44, 1-(8-(4-((4-([1,2,4]triazolo[1,5-a]pyridin-7-yloxy)-3-methylphenyl)amino)pyrrolo[2,1-f][1,2,4]triazin-5-yl)-3,8-diazabicyclo[3.2.1]octan-3-yl)prop-2-en-1-one], the values for the GI50 at BaF3_HER2WT cells, at BaF3_HER2YVMA cells and at BaF3_EGFRWT cells were < 200 nM, < 200 nM and 1500 to 5000 nM, respectively.

Turning to `Cc1cc(Nc2ncnn3ccc(N4C5CCC4CN(C(=O)/C=C/CN(C)C)C5)c23)ccc1Oc1ccn2ncnc2c1` [Example 45, (E)-1-(8-(4-((4-([1,2,4]triazolo[1,5-a]pyridin-7-yloxy)-3-methylphenyl)amino)pyrrolo[2,1-f][1,2,4]triazin-5-yl)-3,8-diazabicyclo[3.2.1]octan-3-yl)-4-(dimethylamino)but-2-en-1-one], the results for the GI50 on BaF3_HER2WT cells, on BaF3_HER2YVMA cells and at BaF3_EGFRWT cells were < 200 nM, < 200 nM and 1500 to 5000 nM, respectively.

Consider `C=CC(=O)N1C2CCC1CN(c1ccn3ncnc(Nc4ccc(Oc5ccn6ncnc6c5)c(C)c4)c13)C2` [Example 46, 1-(3-(4-((4-([1,2,4]triazolo[1,5-a]pyridin-7-yloxy)-3-methylphenyl)amino)pyrrolo[2,1-f][1,2,4]triazin-5-yl)-3,8-diazabicyclo[3.2.1]octan-8-yl)prop-2-en-1-one], for which the GI50 at BaF3_HER2WT cells is < 200 nM; at BaF3_HER2YVMA cells, < 200 nM; at BaF3_EGFRWT cells it was 200 to 500 nM.

For the molecule `Cc1cc(Nc2ncnn3ccc(N4CC5CCC(C4)N5C(=O)/C=C/CN(C)C)c23)ccc1Oc1ccn2ncnc2c1` [Example 47, (E)-1-(3-(4-((4-([1,2,4]triazolo[1,5-a]pyridin-7-yloxy)-3-methylphenyl)amino)pyrrolo[2,1-f][1,2,4]triazin-5-yl)-3,8-diazabicyclo[3.2.1]octan-8-yl)-4-(dimethylamino)but-2-en-1-one], the GI50 at BaF3_HER2WT cells was < 200 nM; on BaF3_HER2YVMA cells it was < 200 nM; at BaF3_EGFRWT cells it was 1500 to 5000 nM.
